Experimental data as given in ChEMBL document CHEMBL1201862, “PubChem BioAssay data set” (2004).
Active and inactive are the calls of the source.

Columns and labels:
[1] = target: Genome polyprotein (dengue virus type 2, UniProt P29990); assay: flavivirus cap methylation enzyme inhibition – biochemical, confirmation dose response, primary screen (AID 588689); format: functional
[2] = target: Tyrosine-protein phosphatase non-receptor type 11 (Homo sapiens, UniProt Q06124); assay: PTPN11 enzyme inhibitors – biochemical, selectivity assay for STEP inhibitor project, dose response (AID 602367); format: functional; conditions: read-out: IC50_Mean
[3] = target: Tyrosine-protein phosphatase non-receptor type 5 (Homo sapiens, UniProt P54829); assay: PTPN5 enzyme inhibition – biochemical, fluorescence intensity, uHTS hits, confirmation (AID 602372); format: functional; conditions: read-out: IC50_Mean
[4] = target: Dual specificity protein phosphatase 3 (Homo sapiens, UniProt P51452); assay: VHR phosphatase inhibition, dose response, selectivity assay for STEP inhibitor project, biochemical (AID 602374); format: functional; conditions: read-out: IC50_Mean
[5] = target: T1, Long-chain-fatty-acid--AMP ligase FadD28 (Mycobacterium tuberculosis, UniProt P9WQ59); assay: Fluorescence polarization aasay to screen for inhibitors that compete for the binding of FadD28 to a bisubstrate Measured in Biochemical System Using Plate Reader - 2147-01_Inhibitor_Dose_CherryPick_Activity.; format: functional, Mycobacterium tuberculosis H37Rv
T1 sequence (P9WQ59 whole entry): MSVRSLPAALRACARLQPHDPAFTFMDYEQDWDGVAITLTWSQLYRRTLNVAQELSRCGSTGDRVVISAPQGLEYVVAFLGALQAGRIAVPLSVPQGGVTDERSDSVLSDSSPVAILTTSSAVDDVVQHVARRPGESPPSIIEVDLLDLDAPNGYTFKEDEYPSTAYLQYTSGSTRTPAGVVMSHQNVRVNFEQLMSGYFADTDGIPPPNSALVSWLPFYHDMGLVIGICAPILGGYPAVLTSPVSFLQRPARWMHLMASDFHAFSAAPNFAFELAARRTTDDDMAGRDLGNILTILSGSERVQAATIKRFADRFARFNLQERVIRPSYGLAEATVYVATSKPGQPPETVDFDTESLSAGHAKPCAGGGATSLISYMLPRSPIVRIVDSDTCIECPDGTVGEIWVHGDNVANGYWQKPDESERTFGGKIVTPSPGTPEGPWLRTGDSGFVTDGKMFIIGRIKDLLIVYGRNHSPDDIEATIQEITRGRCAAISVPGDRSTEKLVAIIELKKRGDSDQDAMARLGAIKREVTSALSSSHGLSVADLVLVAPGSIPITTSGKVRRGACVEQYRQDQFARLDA

[6] = target: T2, Histone-lysine N-methyltransferase NSD2 (Homo sapiens, UniProt O96028); format: biochemical
T2 sequence (O96028 whole entry): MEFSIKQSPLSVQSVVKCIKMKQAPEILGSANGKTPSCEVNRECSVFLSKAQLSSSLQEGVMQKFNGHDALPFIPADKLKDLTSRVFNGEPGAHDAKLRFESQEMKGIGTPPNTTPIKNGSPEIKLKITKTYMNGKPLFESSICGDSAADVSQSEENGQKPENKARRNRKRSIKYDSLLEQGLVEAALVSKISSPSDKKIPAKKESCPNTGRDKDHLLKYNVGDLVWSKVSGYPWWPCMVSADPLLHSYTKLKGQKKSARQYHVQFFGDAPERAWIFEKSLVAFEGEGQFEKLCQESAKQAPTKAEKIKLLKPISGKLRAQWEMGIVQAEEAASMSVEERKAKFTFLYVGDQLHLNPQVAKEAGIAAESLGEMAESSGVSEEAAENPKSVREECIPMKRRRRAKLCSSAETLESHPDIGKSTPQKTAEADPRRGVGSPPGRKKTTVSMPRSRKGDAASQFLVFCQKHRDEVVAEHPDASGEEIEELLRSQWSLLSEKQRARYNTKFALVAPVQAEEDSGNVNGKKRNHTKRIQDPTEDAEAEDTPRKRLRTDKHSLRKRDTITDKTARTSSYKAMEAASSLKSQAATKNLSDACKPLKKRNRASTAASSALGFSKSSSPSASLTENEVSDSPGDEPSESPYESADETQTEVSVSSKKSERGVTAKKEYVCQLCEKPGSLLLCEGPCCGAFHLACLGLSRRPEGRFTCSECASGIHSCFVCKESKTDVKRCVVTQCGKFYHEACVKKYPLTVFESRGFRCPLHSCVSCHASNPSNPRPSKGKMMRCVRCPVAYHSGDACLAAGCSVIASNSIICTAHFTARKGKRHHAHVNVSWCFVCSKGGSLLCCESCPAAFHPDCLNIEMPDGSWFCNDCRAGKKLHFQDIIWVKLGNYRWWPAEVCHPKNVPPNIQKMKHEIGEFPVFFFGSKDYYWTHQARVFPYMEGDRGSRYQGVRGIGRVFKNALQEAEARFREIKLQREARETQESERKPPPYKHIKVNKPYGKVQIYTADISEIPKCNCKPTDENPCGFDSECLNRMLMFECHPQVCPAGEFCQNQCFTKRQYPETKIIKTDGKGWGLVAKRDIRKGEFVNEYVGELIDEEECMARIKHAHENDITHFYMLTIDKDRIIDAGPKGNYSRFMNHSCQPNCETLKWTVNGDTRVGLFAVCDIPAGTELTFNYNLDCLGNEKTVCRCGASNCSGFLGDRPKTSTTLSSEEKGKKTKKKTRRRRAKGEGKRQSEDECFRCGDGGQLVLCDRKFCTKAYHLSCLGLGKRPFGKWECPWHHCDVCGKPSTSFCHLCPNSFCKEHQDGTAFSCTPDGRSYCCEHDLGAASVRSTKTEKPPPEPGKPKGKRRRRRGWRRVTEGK

[7] = target: Beta-lactamase (Pseudomonas aeruginosa, UniProt Q79MP6);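 also: biochemical dose-response test of metallo-beta-lactamase enzyme inhibition, read out by epi-absorbance; purified recombinant IMP-1 metallo-beta-lactamase with nitrocefin as substrate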
[8] = target: Beta-lactamase (Salmonella choleraesuis (strain SC-B67), UniProt Q5J463)
[9] = target: T3, High affinity choline transporter 1 (Homo sapiens, UniProt Q9GZV3); assay: human choline transporter potentiators, potency – cell-based, 10-point CRC, membrane potential dye, dose response (AID 602376); format: functional
T3 sequence (Q9GZV3 whole entry): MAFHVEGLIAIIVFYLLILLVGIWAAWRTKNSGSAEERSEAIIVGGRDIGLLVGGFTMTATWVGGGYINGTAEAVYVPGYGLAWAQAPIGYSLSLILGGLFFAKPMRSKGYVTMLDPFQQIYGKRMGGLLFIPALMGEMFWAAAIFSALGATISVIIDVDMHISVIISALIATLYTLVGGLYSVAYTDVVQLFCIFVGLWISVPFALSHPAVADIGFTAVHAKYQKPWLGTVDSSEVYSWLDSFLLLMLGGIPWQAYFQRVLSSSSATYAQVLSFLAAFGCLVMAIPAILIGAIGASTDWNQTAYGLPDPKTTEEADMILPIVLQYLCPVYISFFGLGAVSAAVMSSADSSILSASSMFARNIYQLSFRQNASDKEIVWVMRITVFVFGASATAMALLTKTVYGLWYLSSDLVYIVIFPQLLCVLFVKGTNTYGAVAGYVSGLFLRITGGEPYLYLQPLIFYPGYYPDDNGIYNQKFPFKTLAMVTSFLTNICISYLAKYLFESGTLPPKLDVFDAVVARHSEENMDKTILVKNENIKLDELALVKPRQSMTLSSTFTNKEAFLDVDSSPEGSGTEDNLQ

[10] = target: Potassium voltage-gated channel subfamily KQT member 2 (Rattus norvegicus, UniProt O88943); assay: blockers of KCNQ2 channel current – cell-based, automated electrophysiology, set II, rat KCNQ2, dose response (AID 588637); format: functional
[11] = Trypanosoma cruzi growth suppression in host cells – NIH3T3 host cells, beta-gal luminescence, confirmation (AID 2044); format: functional, cell-based;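 also: intracellular parasites grown in NIH/3T3 mouse fibroblasts as host cells; luminescent beta-galactosidase reporter signal from transgenic T. cruzi replicating inside host cells; inhibitors lower the luminescence signal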
[12] = NIH3T3 cell viability loss – ATP luminescence, mouse fibroblasts, counter-screen, dose response (AID 2010); format: functional, cell-based;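 also: cells exposed to compound for about 90 hours before reading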
[13] = cells
[14] = target: DNA (cytosine-5)-methyltransferase 1 (Homo sapiens, UniProt P26358); assay: inhibition of DNA methylation by DNMT1 – biochemical, fluorescent molecular beacon, confirmation (AID 602386); format: functional
[15] = target: T4, Small ubiquitin-related modifier 2 (Homo sapiens, UniProt P61956); assay: disruption of SUMO2 interaction with SIM peptide – biochemical, fluorescence polarization, uHTS hits, selectivity assay for SUMO1 interaction inhibitor project, dose response (AID 624385); format: functional; conditions: read-out: IC50_Mean
[16] = target: T5, Small ubiquitin-related modifier 1 (Homo sapiens, UniProt P63165); assay: SUMO1 protein interaction blockers, potency – biochemical, fluorescence polarization, uHTS hits, dose response (AID 624382); format: functional; conditions: read-out: IC50_Mean
[17] = target: T4, Small ubiquitin-related modifier 2; assay: SUMO2 binding disruption by SUMO1 hits – biochemical, FRET, human SUMO2, uHTS hits, selectivity assay for SUMO1 interaction inhibitor project, dose response (AID 624384); format: functional; conditions: read-out: IC50_Mean
[18] = target: T5, Small ubiquitin-related modifier 1; assay: SUMO1 protein-protein binding blockers, potency – biochemical, FRET, dose response (AID 624383); format: functional; conditions: read-out: IC50_Mean
[19] = target: Mitochondrial peptide methionine sulfoxide reductase (Bos taurus, UniProt P54149); assay: Absorbance-based biochemical high throughput dose response assay for activators of Methionine sulfoxide reductase A (MsrA).; format: functional
[20] = viability loss in HeLa cells – cytotoxicity control for MgcRacGAP inhibitor project, dose response (AID 624300); format: functional
[21] = target: T6, Rac GTPase-activating protein 1 (Homo sapiens, UniProt Q9H0H5); assay: blockers of MgcRacGAP-driven Rac1 GTP hydrolysis – biochemical, ADP Hunter fluorescence, primary and confirmatory, confirmation (AID 624330); format: functional
T6 sequence (Q9H0H5 whole entry): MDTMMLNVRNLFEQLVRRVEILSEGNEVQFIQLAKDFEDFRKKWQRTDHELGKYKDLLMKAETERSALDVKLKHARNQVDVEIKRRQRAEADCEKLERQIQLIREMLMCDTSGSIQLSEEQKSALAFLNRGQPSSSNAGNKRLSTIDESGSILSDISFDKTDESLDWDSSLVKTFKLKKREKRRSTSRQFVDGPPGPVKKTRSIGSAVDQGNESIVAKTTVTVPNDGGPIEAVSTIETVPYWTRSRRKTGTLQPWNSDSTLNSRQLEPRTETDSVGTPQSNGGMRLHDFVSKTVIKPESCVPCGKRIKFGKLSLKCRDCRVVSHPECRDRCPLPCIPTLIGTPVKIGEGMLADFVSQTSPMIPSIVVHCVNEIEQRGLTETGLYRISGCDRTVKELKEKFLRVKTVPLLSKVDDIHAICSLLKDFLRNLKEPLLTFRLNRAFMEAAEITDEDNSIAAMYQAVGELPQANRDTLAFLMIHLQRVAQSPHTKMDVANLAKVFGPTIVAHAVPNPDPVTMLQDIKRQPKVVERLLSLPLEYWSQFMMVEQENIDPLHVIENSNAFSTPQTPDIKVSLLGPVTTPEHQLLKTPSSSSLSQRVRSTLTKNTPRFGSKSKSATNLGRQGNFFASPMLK

[22] = target: T7, Tyrosyl-DNA phosphodiesterase 2 (Homo sapiens, UniProt O95551); assay: potency against TDP2 phosphodiesterase activity – biochemical, epi absorbance, IC50, dose response (AID 743297)
T7 sequence (O95551 whole entry): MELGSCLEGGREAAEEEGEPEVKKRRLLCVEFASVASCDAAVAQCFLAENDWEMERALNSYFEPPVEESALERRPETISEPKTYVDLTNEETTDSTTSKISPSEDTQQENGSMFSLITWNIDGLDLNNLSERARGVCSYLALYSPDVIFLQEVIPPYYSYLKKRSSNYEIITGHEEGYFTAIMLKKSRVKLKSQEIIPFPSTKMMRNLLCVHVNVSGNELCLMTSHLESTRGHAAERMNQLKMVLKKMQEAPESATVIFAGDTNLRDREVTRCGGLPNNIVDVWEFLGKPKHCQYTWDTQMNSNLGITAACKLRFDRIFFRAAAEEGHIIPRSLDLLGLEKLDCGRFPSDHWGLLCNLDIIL

[23] = target: Melanin-concentrating hormone receptor 1 (Homo sapiens, UniProt Q99705); assay: Late-stage fluorescence-based counterscreen for antagonists of the G-protein coupled receptor 7 (GPR7): cell-based dose response assay to identify antagonists of the melanin-concentrating hormone receptor 1 (MCHR1) Set 6.; format: functional
[24] = inhibition of ARNT PAS-B/TACC3 complex formation – biochemical, AlphaScreen, cherry-picked samples, confirmation (AID 651703); format: functional, Homo sapiens;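 also: His-tagged ARNT PAS-B domain paired with GST-TACC3 E629A dimer coactivator fragment; potency of inhibitors that break up the complex and lower AlphaScreen signal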

T4 sequence (P61956 whole entry): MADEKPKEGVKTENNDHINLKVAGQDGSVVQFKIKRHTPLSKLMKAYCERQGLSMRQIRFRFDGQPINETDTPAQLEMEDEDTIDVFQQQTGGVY
T5 sequence (P63165 whole entry): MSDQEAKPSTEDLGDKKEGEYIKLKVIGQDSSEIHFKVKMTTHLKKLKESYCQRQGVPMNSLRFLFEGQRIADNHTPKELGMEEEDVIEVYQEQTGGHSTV
Genome polyprotein, sequence (P29990 2492-3391 limits assumed): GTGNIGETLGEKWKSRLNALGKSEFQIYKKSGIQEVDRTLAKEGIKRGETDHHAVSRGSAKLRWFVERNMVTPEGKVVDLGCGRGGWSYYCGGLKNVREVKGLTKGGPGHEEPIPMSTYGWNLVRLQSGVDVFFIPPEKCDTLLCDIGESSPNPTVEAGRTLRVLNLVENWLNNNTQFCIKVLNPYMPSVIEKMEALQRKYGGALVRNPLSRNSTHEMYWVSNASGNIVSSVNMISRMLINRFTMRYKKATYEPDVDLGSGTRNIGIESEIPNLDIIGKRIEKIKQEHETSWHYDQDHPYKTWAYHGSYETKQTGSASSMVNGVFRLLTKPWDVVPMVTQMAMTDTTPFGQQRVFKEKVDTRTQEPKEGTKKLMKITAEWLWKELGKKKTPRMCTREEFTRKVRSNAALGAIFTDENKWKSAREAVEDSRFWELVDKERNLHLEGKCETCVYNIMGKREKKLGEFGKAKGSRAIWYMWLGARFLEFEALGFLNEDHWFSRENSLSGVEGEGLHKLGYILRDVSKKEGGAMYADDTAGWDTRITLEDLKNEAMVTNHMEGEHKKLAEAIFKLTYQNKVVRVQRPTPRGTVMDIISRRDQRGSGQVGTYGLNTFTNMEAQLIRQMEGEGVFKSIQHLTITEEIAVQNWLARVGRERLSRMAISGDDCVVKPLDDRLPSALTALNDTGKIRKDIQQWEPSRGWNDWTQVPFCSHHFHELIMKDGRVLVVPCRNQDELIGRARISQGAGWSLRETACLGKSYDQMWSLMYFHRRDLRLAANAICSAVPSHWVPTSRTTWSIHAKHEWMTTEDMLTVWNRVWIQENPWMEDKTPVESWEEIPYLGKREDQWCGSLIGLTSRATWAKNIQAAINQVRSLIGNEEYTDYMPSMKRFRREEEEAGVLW
Tyrosine-protein phosphatase non-receptor type 5, sequence (P54829 whole entry): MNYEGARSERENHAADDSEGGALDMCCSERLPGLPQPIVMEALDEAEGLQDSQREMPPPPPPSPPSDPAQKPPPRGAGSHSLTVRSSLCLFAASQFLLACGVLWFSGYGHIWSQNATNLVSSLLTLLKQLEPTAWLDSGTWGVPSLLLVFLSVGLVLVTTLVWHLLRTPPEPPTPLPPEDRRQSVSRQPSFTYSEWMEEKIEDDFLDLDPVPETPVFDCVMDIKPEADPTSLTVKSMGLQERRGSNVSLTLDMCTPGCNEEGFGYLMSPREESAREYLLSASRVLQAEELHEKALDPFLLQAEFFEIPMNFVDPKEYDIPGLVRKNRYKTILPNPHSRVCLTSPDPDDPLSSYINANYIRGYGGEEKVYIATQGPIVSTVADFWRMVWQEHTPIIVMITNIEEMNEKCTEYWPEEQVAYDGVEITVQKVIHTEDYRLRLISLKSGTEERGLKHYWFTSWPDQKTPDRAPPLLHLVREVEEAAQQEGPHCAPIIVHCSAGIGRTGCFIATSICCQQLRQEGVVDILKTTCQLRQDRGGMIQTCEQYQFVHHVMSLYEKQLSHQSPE
Tyrosine-protein phosphatase non-receptor type 11, sequence (Q06124 whole entry): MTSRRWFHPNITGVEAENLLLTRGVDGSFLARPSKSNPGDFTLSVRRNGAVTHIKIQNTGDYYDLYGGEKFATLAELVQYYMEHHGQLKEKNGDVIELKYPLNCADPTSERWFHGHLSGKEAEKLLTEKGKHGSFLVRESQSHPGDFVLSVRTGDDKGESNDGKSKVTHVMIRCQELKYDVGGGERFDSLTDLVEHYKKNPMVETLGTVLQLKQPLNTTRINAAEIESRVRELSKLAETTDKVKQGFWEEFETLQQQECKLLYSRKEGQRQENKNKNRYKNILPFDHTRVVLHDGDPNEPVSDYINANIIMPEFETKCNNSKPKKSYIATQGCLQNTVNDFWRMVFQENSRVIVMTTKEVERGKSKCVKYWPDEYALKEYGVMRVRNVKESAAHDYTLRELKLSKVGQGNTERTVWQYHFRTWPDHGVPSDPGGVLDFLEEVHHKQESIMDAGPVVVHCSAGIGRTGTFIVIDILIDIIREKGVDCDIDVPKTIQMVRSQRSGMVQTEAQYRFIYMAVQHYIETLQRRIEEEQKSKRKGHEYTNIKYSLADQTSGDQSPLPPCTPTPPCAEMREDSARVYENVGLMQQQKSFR
Beta-lactamase (Salmonella choleraesuis (strain SC-B67), UniProt Q5J463), sequence (Q5J463 whole entry): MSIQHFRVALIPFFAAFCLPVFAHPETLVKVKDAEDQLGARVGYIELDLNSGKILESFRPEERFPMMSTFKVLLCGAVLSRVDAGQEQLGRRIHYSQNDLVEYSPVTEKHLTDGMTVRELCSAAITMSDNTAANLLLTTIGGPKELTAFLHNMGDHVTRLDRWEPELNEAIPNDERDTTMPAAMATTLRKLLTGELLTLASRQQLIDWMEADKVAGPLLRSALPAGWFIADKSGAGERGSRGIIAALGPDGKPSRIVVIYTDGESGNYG
DNA (cytosine-5)-methyltransferase 1, sequence (P26358 whole entry): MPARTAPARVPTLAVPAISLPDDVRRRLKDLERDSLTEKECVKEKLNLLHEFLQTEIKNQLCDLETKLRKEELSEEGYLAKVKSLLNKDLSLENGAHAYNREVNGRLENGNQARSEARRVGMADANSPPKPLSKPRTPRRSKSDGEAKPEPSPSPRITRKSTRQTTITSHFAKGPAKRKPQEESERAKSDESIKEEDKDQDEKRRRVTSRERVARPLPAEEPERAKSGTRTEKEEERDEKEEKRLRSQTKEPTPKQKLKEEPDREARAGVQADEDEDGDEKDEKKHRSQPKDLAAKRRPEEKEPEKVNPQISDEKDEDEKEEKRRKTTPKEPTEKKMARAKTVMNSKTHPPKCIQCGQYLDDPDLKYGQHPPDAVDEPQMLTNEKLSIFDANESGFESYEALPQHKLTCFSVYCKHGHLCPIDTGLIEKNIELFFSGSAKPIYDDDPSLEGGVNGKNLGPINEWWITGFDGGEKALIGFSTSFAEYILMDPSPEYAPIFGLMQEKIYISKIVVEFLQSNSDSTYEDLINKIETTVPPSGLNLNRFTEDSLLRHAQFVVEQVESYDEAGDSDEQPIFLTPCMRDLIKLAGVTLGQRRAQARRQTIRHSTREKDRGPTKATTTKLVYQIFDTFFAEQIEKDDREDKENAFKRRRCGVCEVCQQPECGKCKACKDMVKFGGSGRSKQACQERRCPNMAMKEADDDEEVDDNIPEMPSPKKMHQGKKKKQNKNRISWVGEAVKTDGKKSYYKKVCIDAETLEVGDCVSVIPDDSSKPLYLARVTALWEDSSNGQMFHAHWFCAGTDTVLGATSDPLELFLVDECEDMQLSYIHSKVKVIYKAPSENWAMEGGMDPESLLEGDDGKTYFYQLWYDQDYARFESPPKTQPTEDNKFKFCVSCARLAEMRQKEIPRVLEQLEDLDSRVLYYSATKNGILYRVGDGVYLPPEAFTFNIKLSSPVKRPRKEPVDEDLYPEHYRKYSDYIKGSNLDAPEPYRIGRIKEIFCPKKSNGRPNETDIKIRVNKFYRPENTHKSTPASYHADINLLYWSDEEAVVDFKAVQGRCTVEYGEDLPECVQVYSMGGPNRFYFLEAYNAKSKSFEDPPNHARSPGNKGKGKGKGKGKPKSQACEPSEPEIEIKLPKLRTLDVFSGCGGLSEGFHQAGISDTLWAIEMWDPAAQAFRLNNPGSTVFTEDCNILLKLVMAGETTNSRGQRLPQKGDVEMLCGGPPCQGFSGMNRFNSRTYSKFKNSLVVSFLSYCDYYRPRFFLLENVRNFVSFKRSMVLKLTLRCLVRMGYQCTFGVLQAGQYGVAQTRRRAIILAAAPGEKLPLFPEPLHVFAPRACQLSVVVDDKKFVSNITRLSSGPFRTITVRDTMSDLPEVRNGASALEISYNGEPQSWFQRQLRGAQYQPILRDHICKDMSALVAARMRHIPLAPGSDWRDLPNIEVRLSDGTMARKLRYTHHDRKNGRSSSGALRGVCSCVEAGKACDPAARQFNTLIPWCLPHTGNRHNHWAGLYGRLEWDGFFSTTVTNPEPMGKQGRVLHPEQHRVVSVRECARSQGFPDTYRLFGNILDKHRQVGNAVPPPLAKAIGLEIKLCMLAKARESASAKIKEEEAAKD
Dual specificity protein phosphatase 3, sequence (P51452 whole entry): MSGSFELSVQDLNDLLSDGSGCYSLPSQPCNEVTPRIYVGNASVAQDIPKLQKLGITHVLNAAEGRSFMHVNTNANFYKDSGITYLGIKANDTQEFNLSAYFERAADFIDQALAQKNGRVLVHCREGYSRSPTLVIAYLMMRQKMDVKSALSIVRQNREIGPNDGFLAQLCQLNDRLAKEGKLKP
Mitochondrial peptide methionine sulfoxide reductase, sequence (P54149 whole entry): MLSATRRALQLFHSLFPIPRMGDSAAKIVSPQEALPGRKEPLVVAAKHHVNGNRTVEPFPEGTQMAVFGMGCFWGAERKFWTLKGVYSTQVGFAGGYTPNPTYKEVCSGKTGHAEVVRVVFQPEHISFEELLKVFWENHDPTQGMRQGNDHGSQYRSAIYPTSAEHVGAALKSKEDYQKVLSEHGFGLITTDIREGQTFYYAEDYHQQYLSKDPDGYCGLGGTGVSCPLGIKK
Beta-lactamase (Pseudomonas aeruginosa, UniProt Q79MP6), sequence (Q79MP6 whole entry): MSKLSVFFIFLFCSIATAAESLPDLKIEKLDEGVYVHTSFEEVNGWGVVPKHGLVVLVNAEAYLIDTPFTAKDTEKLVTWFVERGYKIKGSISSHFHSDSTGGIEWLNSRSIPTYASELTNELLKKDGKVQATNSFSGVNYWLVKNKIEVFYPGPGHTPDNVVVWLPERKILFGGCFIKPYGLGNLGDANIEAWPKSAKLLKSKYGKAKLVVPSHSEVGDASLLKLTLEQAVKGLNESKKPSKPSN

SMILES: CC(C(=O)Nc1ccc(O)cc1C(=O)O)N1C(=O)/C(=C\c2cccs2)SC1=S (stereo unspecified)
- IC50 [1]: 47.9 µM (active)
- IC50 [2]: 1.5 µM (active)
- IC50 [3]: 20.5 µM (inactive)
- IC50 [4]: 5.64 µM (active)
- AC50 [5]: 49.3 µM (active)
- AC50 [6]: > 20 µM (inactive)

SMILES: COc1ccc(-c2cc(=O)oc3c(C)c(OCC(=O)NCCCn4ccnc4)ccc23)cc1
- IC50 [7]: > 59.6 µM (inactive)
- IC50 [8]: > 59.6 µM (inactive)

SMILES: CCCCc1n(C)c2ccccc2[n+]1CC(=O)c1ccc(Cl)cc1
- EC50 [9]: 9.58 µM (active)

SMILES: CCN(CC)S(=O)(=O)c1ccc(N2CCOCC2)c(NC(=O)COc2ccccc2)c1
- IC50 [10]: 2.96 µM (active)

SMILES: CCN(CC)S(=O)(=O)c1cnccc1N1CCN(c2cccc(Cl)c2)CC1
- EC50 [11]: < 0.1 µM (active)
- EC50 [12]: > 60 µM (not active)
- EC50 [9]: 24.7 µM (active)
- EC50 [13]: 0.268 µM (active)

SMILES: CN(c1ccccc1)c1ccc(/C=C(/CCC(=O)O)c2nc3ccccc3s2)cc1[N+](=O)[O-]
- IC50 [1]: 48.5 µM (active)
- IC50 [14]: 9.98 µM (active)
- IC50 [15]: 6.2 µM (active)
- IC50 [16]: 11.1 µM (active)
- IC50 [17]: > 66 µM (inactive)
- IC50 [18]: 51.8 µM (inactive)

SMILES: C[n+]1c(-c2ccccc2)cc2c(=Cc3ccccc3)c3ccccc3n21
- EC50 [19]: > 104 µM (inactive)
- CC50 [20]: 26.3 µM (active)
- IC50 [21]: 58.9 µM (active)
- IC50 [22]: > 128 µM (inactive)

SMILES: COc1ccc(Oc2c(Cl)cnn(CC(=O)N3c4ccccc4CC3C)c2=O)cc1 (stereo unspecified)
- IC50 [23]: 0.781 µM (active)

SMILES: C[C@H]1CN([C@@H](C)CO)C(=O)c2cc(NC(=O)Nc3cccc4ccccc34)ccc2O[C@@H]1CN(C)C(=O)Nc1ccc(C(F)(F)F)cc1
- AC50 [24]: 108 µM (active)
